Structures are written as SMILES. A value given as a limit tells only on which side of the number the result lay.

Experimental findings from ChEMBL document CHEMBL1138213, “Novel multipotent tacrine-dihydropyridine hybrids with improved acetylcholinesterase inhibitory and neuroprotective activities as potential drugs for the treatment of Alzheimer's disease” (J Med Chem, 2006) are described below.

The target of assay [1] is Acetylcholinesterase (Electrophorus electricus, UniProt O42275).
Description: Inhibition of Electrophorus electricus AChE
The target of assay [2] is Acetylcholinesterase (Homo sapiens, UniProt P22303).
Sequence of Acetylcholinesterase (Homo sapiens, UniProt P22303) (P22303 whole entry): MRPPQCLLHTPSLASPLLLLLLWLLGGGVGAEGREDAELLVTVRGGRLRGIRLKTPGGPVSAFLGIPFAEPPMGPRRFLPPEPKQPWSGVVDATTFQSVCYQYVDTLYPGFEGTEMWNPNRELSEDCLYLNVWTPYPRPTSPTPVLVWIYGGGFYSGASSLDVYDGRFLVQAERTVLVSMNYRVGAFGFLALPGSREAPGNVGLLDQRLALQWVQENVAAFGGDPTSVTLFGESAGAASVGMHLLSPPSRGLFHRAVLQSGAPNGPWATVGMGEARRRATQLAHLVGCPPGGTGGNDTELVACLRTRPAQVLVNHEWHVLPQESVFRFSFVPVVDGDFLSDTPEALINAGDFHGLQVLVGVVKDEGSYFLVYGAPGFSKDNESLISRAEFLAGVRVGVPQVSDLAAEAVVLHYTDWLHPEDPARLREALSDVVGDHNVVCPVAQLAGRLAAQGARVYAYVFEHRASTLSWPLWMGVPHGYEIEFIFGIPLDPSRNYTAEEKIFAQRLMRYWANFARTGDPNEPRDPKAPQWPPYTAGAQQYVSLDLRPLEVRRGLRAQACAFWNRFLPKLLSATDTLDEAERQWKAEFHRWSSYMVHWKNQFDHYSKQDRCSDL
Description: Inhibition of human erythrocyte AChE
Another assay addresses Cholinesterase (Homo sapiens, UniProt P06276).
Another assay can be described thus: cells. To be noted: Homo sapiens, SH-SY5Y.
In another assay the test system is SH-SY5Y. Briefly: cells. The following applies: Homo sapiens, read-out: Activity.

Sequence of Cholinesterase (P06276 whole entry): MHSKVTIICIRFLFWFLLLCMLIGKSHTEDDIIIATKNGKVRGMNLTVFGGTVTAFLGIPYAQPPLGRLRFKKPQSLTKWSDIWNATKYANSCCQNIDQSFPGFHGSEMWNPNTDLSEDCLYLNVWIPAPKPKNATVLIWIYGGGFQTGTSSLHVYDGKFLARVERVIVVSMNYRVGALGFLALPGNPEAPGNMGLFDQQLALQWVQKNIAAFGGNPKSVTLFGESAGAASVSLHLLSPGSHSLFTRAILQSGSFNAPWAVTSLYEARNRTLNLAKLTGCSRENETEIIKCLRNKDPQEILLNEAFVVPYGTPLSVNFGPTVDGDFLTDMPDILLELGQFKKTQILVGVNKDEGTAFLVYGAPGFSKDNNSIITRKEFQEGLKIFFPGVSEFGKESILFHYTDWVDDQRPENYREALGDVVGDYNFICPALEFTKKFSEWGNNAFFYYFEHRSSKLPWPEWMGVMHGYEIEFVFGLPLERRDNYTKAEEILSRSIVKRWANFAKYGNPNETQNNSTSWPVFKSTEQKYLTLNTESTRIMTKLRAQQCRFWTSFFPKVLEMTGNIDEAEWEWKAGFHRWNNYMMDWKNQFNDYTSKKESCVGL
Sequence of Acetylcholinesterase (Electrophorus electricus, UniProt O42275) (O42275 whole entry): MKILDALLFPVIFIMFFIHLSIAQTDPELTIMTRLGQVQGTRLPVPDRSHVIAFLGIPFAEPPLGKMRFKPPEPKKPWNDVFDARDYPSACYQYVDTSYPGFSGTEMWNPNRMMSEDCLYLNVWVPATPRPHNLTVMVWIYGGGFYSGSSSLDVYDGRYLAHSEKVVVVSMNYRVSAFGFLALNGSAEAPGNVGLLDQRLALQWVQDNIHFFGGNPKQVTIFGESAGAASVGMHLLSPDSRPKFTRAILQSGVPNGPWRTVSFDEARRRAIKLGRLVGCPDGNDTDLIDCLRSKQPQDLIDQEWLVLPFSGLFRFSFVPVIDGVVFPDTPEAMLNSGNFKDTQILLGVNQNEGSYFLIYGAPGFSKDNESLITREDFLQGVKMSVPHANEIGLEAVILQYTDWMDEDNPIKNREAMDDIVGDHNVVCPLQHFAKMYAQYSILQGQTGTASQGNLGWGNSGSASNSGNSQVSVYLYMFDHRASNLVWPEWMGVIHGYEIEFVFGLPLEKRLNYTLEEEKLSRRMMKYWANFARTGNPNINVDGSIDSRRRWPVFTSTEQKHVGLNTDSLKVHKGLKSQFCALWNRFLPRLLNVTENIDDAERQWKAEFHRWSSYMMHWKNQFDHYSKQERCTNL
Description for SH-SY5Y: Viability of SH-SY5Y cells measured as neuroprotection activity in presence of H2O2 at 0.3 uM relative to control

What is called IC50 is the concentration at which inhibition is half-maximal. Broadly, the inhibition is the relative decrease from the control value, in per cent. On to `CCOC(=O)C1=C(C)Nc2nc3c(c(N)c2C1c1ccccc1)CCCC3` (stereo not drawn), for which the results for the half-maximal inhibitory concentration (IC50) against Acetylcholinesterase [1], on Acetylcholinesterase [2] and against Cholinesterase were 80 nM, 122 nM and > 100000 nM, respectively. Further, the inhibition at 0.3 µM in “cells” came to 36.6%. Moreover, in the assay with SH-SY5Y, the viability at 0.3 µM is 30.6%.

`CCOC(=O)C1=C(C)Nc2nc3c(c(N)c2C1c1cccc(OC)c1)CCCC3` (stereo not drawn): in “cells”, the inhibition at 0.3 µM was determined as 31%.

In the assay “cells”, `CCOC(=O)C1=C(C)Nc2nc3c(c(N)c2C1c1ccc(F)cc1)CCCC3` (stereo not drawn) displayed an inhibition at 0.3 µM of 22.2%.

With `CCOC(=O)C1=C(C)Nc2nc3c(c(N)c2C1c1ccccc1[N+](=O)[O-])CCCC3` (stereo not drawn), the inhibition at 0.3 µM in “cells” worked out at 32.6%.

For `CCOC(=O)C1=C(C)Nc2nc3c(c(N)c2C1c1ccc([N+](=O)[O-])cc1)CCCC3` (stereo not drawn), the values for the concentration for half-maximal inhibition (IC50) on Acetylcholinesterase [1], on Acetylcholinesterase [2] and at Cholinesterase were 600 nM, 309 nM and 34400 nM, respectively. Testing at 0.3 µM in the assay “cells” gave an inhibition of 66.7%. The viability at 0.3 µM with SH-SY5Y amounted to 35.5%.

Regarding `CCOC(=O)C1=C(C)Nc2nc3c(c(N)c2C1c1ccc(C)cc1)CCCC3` (stereo not drawn), the IC50 at Acetylcholinesterase [1] is 91 nM; at Acetylcholinesterase [2], 169 nM; against Cholinesterase it was > 100000 nM. In the assay “cells”, this molecule yielded an inhibition at 0.3 µM of 29.8%. The viability at 0.3 µM in the assay with SH-SY5Y amounted to 53.7%.

In turn, `CCOC(=O)C1=C(C)Nc2nc3c(c(N)c2C1c1cccc([N+](=O)[O-])c1)CCCC3` (stereo not drawn) registered an inhibition at 0.3 µM in “cells” of 33.6%.

On to `CCOC(=O)C1=C(C)Nc2nc3c(c(N)c2C1c1ccc(OC)cc1)CCCC3` (stereo not drawn), for which the inhibition at 0.3 µM in “cells” is 32.8%.

In the case of `CCOC(=O)C1=C(C)Nc2nc3c(c(N)c2C1c1ccccc1OC)CCCC3` (stereo not drawn), in the assay “cells”, testing at 0.3 µM gave an inhibition of 46.5%.

`COCCOC(=O)C1=C(C)NC(C)=C(C(=O)OC(C)C)C1c1cccc([N+](=O)[O-])c1` (stereo not drawn) [NIMODIPINE] returned an inhibition at 0.3 µM in “cells” of 45.5%. Further, the viability at 0.3 µM with SH-SY5Y stood at 36%.
